According to PubChem BioAssay AID248 (DTP/NCI, 2004):
Toxic doses and inconclusive results are not listed. No stated cut-off is given here; in the data, active means T/C of 150% or more; inactive means T/C below 125%.

Test system: L1210 leukemia ip in BDF1 mice, survival T/C
Assay: NCI In Vivo Anticancer Drug Screen. Data for tumor model L1210 Leukemia (intraperitoneal) in B6D2F1 (BDF1) mice
Conditions: endpoint: mean survival time, higher = longer survival
How it was run: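 Antitumor effect is assessed in tumor-bearing animals. Survival in the compound arm is compared with a vehicle-dosed control arm and expressed as their quotient.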

[1] = dose: 100.0 mg/kg/injection, schedule: Q01DX009 (ip), vehicle: Klucel (hydroxypropylcellulose) (HPC)
[2] = dose: 200.0 mg/kg/injection, schedule: Q01DX009 (ip), vehicle: Klucel (hydroxypropylcellulose) (HPC)
[3] = dose: 50.0 mg/kg/injection, schedule: Q01DX009 (ip), vehicle: saline
[4] = dose: 100.0 mg/kg/injection, schedule: Q01DX009 (ip), vehicle: saline
[5] = dose: 100.0 mg/kg/injection, schedule: Q04DX002 (ip), vehicle: Klucel (hydroxypropylcellulose) (HPC)
[6] = dose: 200.0 mg/kg/injection, schedule: Q04DX002 (ip), vehicle: Klucel (hydroxypropylcellulose) (HPC)
[7] = dose: 400.0 mg/kg/injection, schedule: Q04DX002 (ip), vehicle: Klucel (hydroxypropylcellulose) (HPC)
[8] = dose: 100.0 mg/kg/injection, schedule: Q04DX003 (ip), vehicle: Klucel (hydroxypropylcellulose) (HPC)
[9] = dose: 200.0 mg/kg/injection, schedule: Q04DX003 (ip), vehicle: Klucel (hydroxypropylcellulose) (HPC)
[10] = dose: 400.0 mg/kg/injection, schedule: Q04DX003 (ip), vehicle: Klucel (hydroxypropylcellulose) (HPC)
[11] = dose: 400.0 mg/kg/injection, schedule: Q01DX009 (ip), vehicle: Klucel (hydroxypropylcellulose) (HPC)

Measured: T/C

O=C(NO)Nc1cccc(Cl)c1
inactive: dose: 100.0 mg/kg/injection, schedule: Q01DX001 (ip), vehicle: carboxymethylcellulose (CMC) 103 % of control | dose: 200.0 mg/kg/injection, schedule: Q01DX001 (ip), vehicle: carboxymethylcellulose (CMC) 97 % of control | dose: 400.0 mg/kg/injection, schedule: Q01DX001 (ip), vehicle: carboxymethylcellulose (CMC) 100 % of control

COc1cc(N=O)ccc1O
inactive: dose: 50.0 mg/kg/injection, schedule: Q01DX009 (ip), vehicle: Klucel (hydroxypropylcellulose) (HPC) 106 % of control | [1] 103 % of control | [2] 100 % of control

COC1=CC23CCCN2CCc2cc4c(cc2C3C1O)OCO4 (stereo not drawn)
inactive: dose: 25.0 mg/kg/injection, schedule: Q01DX009 (ip), vehicle: saline 93 % of control | [3] 103 % of control | dose: 55.0 mg/kg/injection, schedule: Q01DX009 (ip), vehicle: saline 98 % of control | [4] 117 % of control | dose: 110.0 mg/kg/injection, schedule: Q01DX009 (ip), vehicle: saline 107 % of control | dose: 220.0 mg/kg/injection, schedule: Q01DX009 (ip), vehicle: saline 102 % of control

COC(=O)[C@@H]1[C@H](O)[C@H](C)[C@H](O)[C@H](C)/C=C\C=C(C)C(=O)Nc2c(C)c(OC(C)=O)c3c(c2O)C(=O)C(C)=C2OCOC(=C23)C(C)=C[C@@](C)(O)[C@H](O)[C@@H](C)[C@H]1OC(C)=O
inactive: [5] 96 % of control | [6] 101 % of control | [7] 101 % of control

O=[N+]([O-])c1ccc(Oc2ccc(Cl)cc2)cc1
inactive: [8] 94 % of control | [9] 102 % of control | [10] 94 % of control

CCCCCCCCCCCCCCCCC/C(CC)=N/Nc1ccc([N+](=O)[O-])cc1[N+](=O)[O-]
inactive: dose: 100.0 mg/kg/injection, schedule: Q01DX001 (ip), vehicle: Klucel (hydroxypropylcellulose) (HPC) 104 % of control | dose: 200.0 mg/kg/injection, schedule: Q01DX001 (ip), vehicle: Klucel (hydroxypropylcellulose) (HPC) 106 % of control | dose: 400.0 mg/kg/injection, schedule: Q01DX001 (ip), vehicle: Klucel (hydroxypropylcellulose) (HPC) 97 % of control

Cc1cc(N=Nc2c(C)ccc3ncccc23)ccc1N
inactive: dose: 3.12 mg/kg/injection, schedule: Q01DX001 (ip), vehicle: DMSO 90 % of control | dose: 6.25 mg/kg/injection, schedule: Q01DX001 (ip), vehicle: DMSO 98 % of control | dose: 12.5 mg/kg/injection, schedule: Q01DX001 (ip), vehicle: DMSO 98 % of control

COC(=O)CN(C(=S)c1ccccc1)c1ccccc1
inactive: [8] 104 % of control | [9] 96 % of control | [10] 94 % of control

CCOC(=O)C1CCCNC1 (stereo not drawn)
inactive: [4] 96 % of control | dose: 100.0 mg/kg/injection, schedule: Q04DX003 (ip), vehicle: saline 98 % of control | dose: 200.0 mg/kg/injection, schedule: Q01DX009 (ip), vehicle: saline 91 % of control | dose: 200.0 mg/kg/injection, schedule: Q04DX003 (ip), vehicle: saline 101 % of control | dose: 400.0 mg/kg/injection, schedule: Q01DX009 (ip), vehicle: saline 100 % of control | dose: 400.0 mg/kg/injection, schedule: Q04DX003 (ip), vehicle: saline 94 % of control

c1ccc2c(c1)CCN(C1=NCCO1)C2
inactive: dose: 9.5 mg/kg/injection, schedule: Q01DX001 (ip), vehicle: saline 112 % of control | dose: 10.0 mg/kg/injection, schedule: Q04DX003 (ip), vehicle: saline 97 % of control | dose: 19.0 mg/kg/injection, schedule: Q01DX001 (ip), vehicle: saline 100 % of control | dose: 20.0 mg/kg/injection, schedule: Q04DX003 (ip), vehicle: saline 94 % of control | dose: 38.0 mg/kg/injection, schedule: Q01DX001 (ip), vehicle: saline 101 % of control | dose: 40.0 mg/kg/injection, schedule: Q04DX003 (ip), vehicle: saline 90 % of control

Cc1cnc(N[N+](=O)[O-])nc1-c1ccccc1O
inactive: [5] 96 % of control | [6] 108 % of control | [7] 105 % of control

CC(=O)c1ccccc1OCC(O)CN1CCN(c2cccc(C(F)(F)F)c2)CC1 (stereo not drawn)
inactive: dose: 100.0 mg/kg/injection, schedule: Q04DX003 (ip), vehicle: saline with Tween-80 106 % of control | dose: 200.0 mg/kg/injection, schedule: Q04DX003 (ip), vehicle: saline with Tween-80 108 % of control | dose: 400.0 mg/kg/injection, schedule: Q04DX003 (ip), vehicle: saline with Tween-80 108 % of control

Cc1cc(C)c(CC(C)(CO)CO)cc1CC(C)(CO)CO
inactive: [1] 93 % of control | [2] 87 % of control | dose: 300.0 mg/kg/injection, schedule: Q01DX009 (ip), vehicle: Klucel (hydroxypropylcellulose) (HPC) 106 % of control

CC(=O)C1COC(O)C1C (stereo not drawn)
inactive: dose: 0.15 mg/kg/injection, schedule: Q01DX009 (ip), vehicle: saline 102 % of control | dose: 0.31 mg/kg/injection, schedule: Q01DX009 (ip), vehicle: saline 100 % of control | dose: 0.62 mg/kg/injection, schedule: Q01DX009 (ip), vehicle: saline 105 % of control | dose: 1.25 mg/kg/injection, schedule: Q01DX009 (ip), vehicle: saline 107 % of control | dose: 2.5 mg/kg/injection, schedule: Q01DX009 (ip), vehicle: saline 112 % of control | dose: 5.0 mg/kg/injection, schedule: Q01DX001 (ip), vehicle: saline 101 % of control | dose: 10.0 mg/kg/injection, schedule: Q01DX001 (ip), vehicle: saline 113 % of control

CCOc1cc(/C=N/NC(=O)c2ccccc2NC(=O)c2ccccc2)ccc1OC
inactive: [1] 92 % of control | [2] 92 % of control | [11] 101 % of control

COc1ccc(NC(=O)Nc2ccc(CCO)cc2)c(OC)c1
inactive: [5] 97 % of control | [6] 93 % of control | [7] 93 % of control

O=C(CCNc1ccccc1)c1ccccc1
inactive: [3] 95 % of control | [4] 95 % of control | dose: 100.0 mg/kg/injection, schedule: Q04DX002 (ip), vehicle: saline 105 % of control | dose: 200.0 mg/kg/injection, schedule: Q04DX002 (ip), vehicle: saline 108 % of control

CC(C)CC1NC(=O)C(C(C)C)NC(=O)CC(C)COC(=O)C(CC(C)C)N(C)C(=O)C(C(C)C)NC(=O)C(C(C)C)OC1=O (stereo not drawn)
inactive: dose: 75.0 mg/kg/injection, schedule: Q01DX001 (ip), vehicle: carboxymethylcellulose (CMC) 96 % of control | dose: 150.0 mg/kg/injection, schedule: Q01DX001 (ip), vehicle: carboxymethylcellulose (CMC) 96 % of control

O=c1cc(CO)oc(C(Nc2cccc(Cl)c2)c2ccccc2)c1O (stereo not drawn)
inactive: dose: 100.0 mg/kg/injection, schedule: Q01DX001 (ip), vehicle: saline 91 % of control | dose: 200.0 mg/kg/injection, schedule: Q01DX001 (ip), vehicle: saline 95 % of control | dose: 400.0 mg/kg/injection, schedule: Q01DX001 (ip), vehicle: saline 89 % of control

CC(=O)Nc1ccc(OC(=O)Nc2cccc(Cl)c2Cl)cc1
inactive: [1] 102 % of control | [2] 101 % of control | [11] 97 % of control

COc1ccc(N(N=O)C(C)C)cc1
inactive: dose: 12.5 mg/kg/injection, schedule: Q01DX009 (ip), vehicle: saline with Tween-80 87 % of control | dose: 25.0 mg/kg/injection, schedule: Q01DX009 (ip), vehicle: saline with Tween-80 94 % of control | dose: 50.0 mg/kg/injection, schedule: Q01DX009 (ip), vehicle: saline with Tween-80 87 % of control | dose: 100.0 mg/kg/injection, schedule: Q01DX009 (ip), vehicle: saline with Tween-80 89 % of control | dose: 200.0 mg/kg/injection, schedule: Q01DX009 (ip), vehicle: saline with Tween-80 92 % of control
